{"source": "paper PMC10011573", "about": "“Development of novel broad-spectrum antimicrobial lipopeptides derived from plantaricin NC8 β” (Scientific Reports, 2023)", "key": {"[1]": {"tested_on": "S. aureus (ATCC 29213)", "format": "cell-based", "details": "ATCC 29213, 20 h"}, "[2]": {"tested_on": "E. coli", "method": "(§1) In order to evaluate the risk of the development of resistance towards the lipopeptide, a serial passage assay was conducted. […] MIC and MBC were determined for passages 0, 10, 20 and 30, using the broth microdilution method and compared with the unexposed bacteria (passage 0)."}, "[3]": {"tested_on": "S. aureus", "method": "as §1"}, "[4]": {"tested_on": "P. aeruginosa", "details": "20 h"}, "[5]": {"tested_on": "A. baumannii", "details": "20 h"}, "[6]": {"tested_on": "E. cloacae", "details": "20 h"}, "[7]": {"tested_on": "E. faecium", "details": "20 h"}, "[8]": {"tested_on": "K. pneumoniae", "details": "20 h"}, "[9]": {"tested_on": "S. aureus (ATCC 29213, MSSA)", "details": "ATCC 29213, 20 h"}, "[10]": {"tested_on": "E. coli (K-12 MG1655)", "details": "Table 3; K-12 MG1655; broth microdilution, 50:50 PBS/LB-broth, 200 µL, 20 h, 37 °C"}, "[11]": {"tested_on": "E. coli (K-12 MG1655)", "format": "cell-based", "details": "K-12, 20 h", "description": "The broth microdilution method was used to determine minimal inhibitory concentration (MIC) and minimal bactericidal concentration (MBC), in accordance with the EUCAST standards for the broth microdilution method. Two-fold serial dilutions of the lipopeptides were used, and the final concentrations ranged from 0.19 to 100 µM. In brief, two-fold serial dilutions of the lipopeptides were performed in a 96-well plate in PBS, with a final volume of 100 µl per well, after which 100 µl of LB-broth media containing approximately 5 × 10^5 CFU/ml of bacteria was added to each well. The plate was then incubated for 20 h in 37 °C on a shaker (400 rpm). The effect of lipopeptide-antibiotic combinations was investigated by performing checkerboard assays. The assays were performed in accordance with the MIC and MBC tests conducted above, but with horizontal and longitudinal two-fold serial dilutions of the tested compounds. […] The fractional inhibitory concentration (FIC) and fractional bactericidal concentration (FBC) were calculated by the equation (MIC or MBC of peptide in combination/MIC or MBC of peptide alone) + (MIC or MBC of antibiotic in combination/MIC or MBC of antibiotic alone). Synergy was defined as FIC/FBC ≤ 0.5, additive when 0.5 < FIC/FBC ≤ 1, indifferent when 1 < FIC/FBC < 2 and antagonistic when FIC/FBC ≥ 2. All experiments were repeated at least three times."}, "[12]": {"assay": "Dynamic light scattering, critical aggregation concentration", "format": "physicochemical", "details": "DLS scattering intensity at 90°, 10 mM PBS pH 7.4, serial dilution 100 µM to 0.01 nM, 22 °C, average of 10 runs of 30 s; estimated", "method": "Lipopeptide aggregation was evaluated on a ALV/CGS-8F Platform (ALV-GmbH, Langen, Germany) equipped with a […] He–Ne laser. Scattered light was collected at 90°. PBS (10 mM, pH 7.4) was chosen as buffer, and filtered with a 0.22 µm filter prior to use. The samples were prepared in a cylindrical glass cuvette immersed in refractive-index matching toluene. The peptides were serially diluted between 100 µM and 0.01 nM, sonicated for 1 min and incubated for 5 min at 22 °C and vortexed prior to measuring. The temperature was controlled throughout the experiment with the use of a circulating water bath. Data were analysed with ALV-Correlator (Version 3.0, ALV-GmbH, Langen, Germany) software, and the scattering intensity was obtained through an average of 10 consecutive 30 s runs."}, "[13]": {"details": "E. coli p0 (unexposed bacteria, passage 0)"}, "[14]": {"details": "E. coli p10, cultured with 1 µM L-6-C5 in LB-broth"}, "[15]": {"details": "E. coli p20, cultured with 1 µM L-6-C5 in LB-broth"}, "[16]": {"details": "E. coli p30, cultured with 1 µM L-6-C5 in LB-broth"}, "[17]": {"details": "S. aureus p0 (unexposed bacteria, passage 0)"}, "[18]": {"details": "S. aureus p10, cultured with 1 µM L-6-C5 in LB-broth"}, "[19]": {"details": "S. aureus p20, cultured with 1 µM L-6-C5 in LB-broth"}, "[20]": {"details": "S. aureus p30, cultured with 1 µM L-6-C5 in LB-broth"}}, "note": "Like-named read-outs stand apart in the source and are kept apart here. Residues, ends and D or L forms follow the SMILES beside them. *: point of attachment. Pentanoyl = CCCCC(=O)*", "data": [{"smiles": "CCCCC(=O)N[C@@H](CC(C)C)C(=O)NCC(=O)N[C@H](C(=O)N[C@@H](CCCCN)C(=O)N[C@H](C(=O)N[C@@H](CC(C)C)C(=O)N[C@@H](Cc1c[nH]c2ccccc12)C(=O)N[C@@H](CO)C(=O)N[C@@H](C)C(=O)N[C@@H](Cc1ccc(O)cc1)C(=O)N[C@@H](CCCCN)C(=O)N[C@@H](Cc1c[nH]cn1)C(=O)N[C@@H](CCCNC(=N)N)C(=O)N[C@@H](CCCCN)C(=O)N[C@H](C(=O)N[C@H](C(N)=O)[C@@H](C)CC)[C@@H](C)O)[C@@H](C)CC)[C@@H](C)CC", "note": "[L-6-C5] (Pentanoyl-LGIKILWSAYKHRKTI-NH2)", "values": [{"measurement": "S. aureus MBC, lipopeptide alone", "setting": "[1]", "result": 6.25, "unit": "µM"}, {"measurement": "S. aureus MIC, lipopeptide alone", "setting": "[1]", "result": 6.25, "unit": "µM"}, {"measurement": "MBC", "setting": "[2]; [13]", "result": 6.3, "unit": "µM"}, {"measurement": "MIC", "setting": "[2]; [13]", "result": 6.3, "unit": "µM"}, {"measurement": "MBC", "setting": "[2]; [14]", "result": 6.3, "unit": "µM"}, {"measurement": "MIC", "setting": "[2]; [14]", "result": 6.3, "unit": "µM"}, {"measurement": "MBC", "setting": "[2]; [15]", "result": 6.3, "unit": "µM"}, {"measurement": "MIC", "setting": "[2]; [15]", "result": 6.3, "unit": "µM"}, {"measurement": "MBC", "setting": "[2]; [16]", "result": 6.3, "unit": "µM"}, {"measurement": "MIC", "setting": "[2]; [16]", "result": 6.3, "unit": "µM"}, {"measurement": "MBC", "setting": "[3]; [17]", "result": 6.3, "unit": "µM"}, {"measurement": "MIC", "setting": "[3]; [17]", "result": 6.3, "unit": "µM"}, {"measurement": "MBC", "setting": "[3]; [18]", "result": 6.3, "unit": "µM"}, {"measurement": "MIC", "setting": "[3]; [18]", "result": 6.3, "unit": "µM"}, {"measurement": "MBC", "setting": "[3]; [19]", "result": 6.3, "unit": "µM"}, {"measurement": "MIC", "setting": "[3]; [19]", "result": 6.3, "unit": "µM"}, {"measurement": "MBC", "setting": "[3]; [20]", "result": 6.3, "unit": "µM"}, {"measurement": "MIC", "setting": "[3]; [20]", "result": 6.3, "unit": "µM"}, {"measurement": "MBC", "setting": "[4]", "result": 100, "unit": "µM"}, {"measurement": "MIC", "setting": "[4]", "result": 50, "unit": "µM"}, {"measurement": "MBC", "setting": "[5]", "result": 6.3, "unit": "µM"}, {"measurement": "MIC", "setting": "[5]", "result": 3.1, "unit": "µM"}, {"measurement": "MBC", "setting": "[6]", "result": "> 100", "unit": "µM"}, {"measurement": "MIC", "setting": "[6]", "result": "> 100", "unit": "µM"}, {"measurement": "MBC", "setting": "[7]", "result": 12.5, "unit": "µM"}, {"measurement": "MIC", "setting": "[7]", "result": 6.3, "unit": "µM"}, {"measurement": "MBC", "setting": "[8]", "result": 100, "unit": "µM"}, {"measurement": "MIC", "setting": "[8]", "result": 50, "unit": "µM"}, {"measurement": "S. aureus MBC", "setting": "[9]", "result": 6.2, "unit": "µM"}, {"measurement": "S. aureus MIC", "setting": "[9]", "result": 6.2, "unit": "µM"}, {"measurement": "E. coli MBC", "setting": "[10]", "result": 6.2, "unit": "µM"}, {"measurement": "E. coli MIC", "setting": "[10]", "result": 6.2, "unit": "µM"}, {"measurement": "E. coli MBC, lipopeptide alone", "setting": "[11]", "result": 6.25, "unit": "µM"}, {"measurement": "E. coli MIC, lipopeptide alone", "setting": "[11]", "result": 6.25, "unit": "µM"}, {"measurement": "critical aggregation concentration (CAC)", "setting": "[12]", "result": 5.6, "unit": "µM"}]}]}
